In article PMC11802874, “The hypolipidemic effect of MI-883, the combined CAR agonist/ PXR antagonist, in diet-induced hypercholesterolemia model” (Nature Communications, 2025):
Values joined by “and” are separate entries in the source; they are usually repeats but may differ in a detail not shown here. Equal values may be shown once.

Legend:
[1] = tested on: humanized PXR-CAR-CYP3A4/3A7 mice, liver; assay: UHPSFC/MS liver lipidomics (HFD study); type: in vivo, mouse
Protocol: Solvents, additives, lipid class internal standards, liver sample preparation, and UHPSFC/MS measurement are described in detail in Supplementary, Chapter 19. Lipid separation using UHPSFC (Acquity UPC^2 instrument from Waters; Milford, MA, USA) was performed on column Viridis BEH (100 × 3 mm, 1.7 µm) with the following conditions: the column temperature 60 °C, the flow rate 1.9 mL/min, and the injection volume 1 µL. The following linear gradient was performed using scCO2 and methanol (30 mM ammonium acetate + 1% of water) used as a modifier: 0 min – 1% modifier, 1.5 min – 16% modifier, 4 min – 51% modifier, 7 min – 51% modifier, 7.51 min – 1% modifier, and the equilibration with the total run time of 8 min. The automatic back-pressure regulator (ABPR) was set to 1800 psi and the autosampler temperature to 4 °C. Methanol with 30 mM ammonium acetate and 1% of water was used as the make-up solvent with a flow rate of 0.25 mL/min. The SFC was connected with the hybrid quadrupole - time of flight (QTOF) mass spectrometer Synapt G2-Si (Waters; Milford, MA, USA) with following conditions: sensitivity mode applying positive ESI mode, the mass range of m/z 150–1200, the capillary voltage of 3 kV, the sampling cone of 20 V, the source offset of 90 V, the source temperature of 150 °C, the desolvation temperature of 500 °C, the cone gas flow of 50 L/h, the desolvation gas flow of 1000 L/h, and the nebulizer gas flow of 4 bar. Mass spectra were acquired in the continuum mode with a scan time of 0.5 s and the peptide leucine enkephalin as the lock mass.
All UHPSFC/MS-QTOF spectra were acquired using MassLynx and processed as follows: noise reduction using the Compression tool followed by the lock mass correction and the conversion from continuum to centroid mode using the MassLynx tool (Accurate mass measure). […] Data were further analyzed using lipidr package. PCA and log2 fold change values were calculated using log2 transformed and Pareto scaled data. […]

[2] = tested on: humanized PXR-CAR-CYP3A4/3A7 mice, ileum; assay: RT-qPCR and Western blotting of ileum samples (HFD/HCD studies); type: in vivo, mouse; conditions: for Npc1l1 mRNA (RT-qPCR ileum): FigS14a
Text: Specific TaqMan probes were used to analyze ileal samples, following the protocol described in Supplementary Table S3.
Western blotting experiments have been performed in BioRad instruments with BioRad precasted gels and reagents. Antibodies are listed in Supplementary Table S4. Densitometry has been done using ChemiDoc™ MP Imaging System and software (BioRad, Hercules, USA). Data are presented as relative protein expression to control samples. For protein expression quantification, areas in histograms have been calculated and related to a reference protein.

Human recombinant CYP2B6 = target: T1, Human recombinant CYP2B6 (Homo sapiens, UniProt P20813); assay: CYP450-Glo CYP2B6 enzymatic activity assay; type: biochemical; conditions: for Inhibition assays, CYP2B6 activity (replicates): log[Agonist]
T1 construct: purchased Promega; host or cells: baculovirus-infected insect cells
T1 sequence (P20813 1-491): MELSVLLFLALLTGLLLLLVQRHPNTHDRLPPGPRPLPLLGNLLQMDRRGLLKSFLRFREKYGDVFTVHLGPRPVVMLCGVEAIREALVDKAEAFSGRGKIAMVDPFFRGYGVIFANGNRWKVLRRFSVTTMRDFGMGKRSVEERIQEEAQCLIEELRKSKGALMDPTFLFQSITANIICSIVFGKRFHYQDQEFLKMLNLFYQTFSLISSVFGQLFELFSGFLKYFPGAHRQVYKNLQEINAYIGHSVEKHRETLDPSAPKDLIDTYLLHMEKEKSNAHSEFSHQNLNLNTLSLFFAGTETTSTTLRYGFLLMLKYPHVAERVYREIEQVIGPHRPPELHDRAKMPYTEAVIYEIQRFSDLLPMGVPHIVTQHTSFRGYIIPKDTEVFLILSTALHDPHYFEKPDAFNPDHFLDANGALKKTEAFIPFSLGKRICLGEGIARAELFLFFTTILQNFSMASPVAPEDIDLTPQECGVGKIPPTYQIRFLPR
Text: Data are presented as means±S.D. from three independent measurements.

[3] = Metabolic stability in mouse liver S9 fraction; conditions: male, CD-1, mouse
Protocol: Shimadzu HPLC system including vacuum degasser, gradient pumps, reverse phase HPLC column, column oven, and autosampler with an API 4000 QTRAP mass spectrometer (Applied Biosystems/MDS Sciex (AB Sciex) with Turbo V ion source and TurboIonspray interface were used. The reference compound midazolam, which is metabolized both by phase I and phase II enzymes, was used. The elimination constant (kel), half-life (t1/2), and intrinsic clearance (Clint) were determined[19] (Table S1).

[4] = tested on: PXR-responsive CYP3A4(pER6)-luc construct; assay: CYP3A4(pER6)-luc luciferase reporter assay in HepG2 cells
[5] = FigS14b, ileum, individual animals, relative to vehicle

NC(=O)c1cc(Cn2cc(-c3c(-c4ccc(Cl)cc4)nc4cc(F)ccn34)nn2)ccc1Cl [MI-883, 2-chloro-5-((4-(2-(4-chlorophenyl)-7-fluoroimidazo[1,2-a]pyridin-3-yl)-1H-1,2,3-triazol-1-yl)methyl)benzamide]
cholesteryl esters (CE) in livers, UHPSFC/MS lipidomics [1]: not significantly altered | total and some individual lysophosphatidylcholine (LPC) levels in liver [1]: statistically significant decrease | liver triglycerides with long and highly unsaturated fatty acids (TG 60:12, TG 60:13) ([1]; male mice): significant increase | Npc1l1 mRNA (RT-qPCR ileum) ([2]; HCD, ileum, individual animals, relative to vehicle): 0.6886 and 0.6208 and 0.503 and 1.313 and 0.759 and 0.8325 | Npc1l1 mRNA (RT-qPCR ileum) ([2]; HFD, ileum, individual animals, relative to vehicle): 1.357 and 1.364 and 0.9665 and 1.432 | Abcg5 mRNA (RT-qPCR ileum) [2, 5]: 1.01 and 0.5455 and 0.4999 and 1.367 and 0.6847 and 1.339 | Abcg8 mRNA (RT-qPCR ileum) [2, 5]: 0.9573 and 0.7781 and 0.4243 and 1.303 and 0.6152 and 1.193 | Fgf15 mRNA (RT-qPCR ileum) ([2]; FigS14c, HCD, ileum, individual animals, relative to vehicle): 0.6669 and 0.9092 and 0.1811 and 0.1054 and 2.113 and 1.33 | Fgf15 mRNA (RT-qPCR ileum) ([2]; FigS14c, HFD, ileum, individual animals, relative to vehicle): 0.03638 and 0.6965 and 4.34 and 0.01802 | Shp mRNA (RT-qPCR ileum) ([2]; FigS14c, ileum, individual animals, relative to vehicle): 1.017 and 0.2256 and 0.2775 and 0.6923 and 3.416 and 0.8457 | Asbt protein in the mouse ileum ([2]; HFD study): significantly decreased | ileum Cyp2b6 i, individual animals ([2]; HFD study, relative to control): 4.346 and 14.7968 and 1.588 and 2.908 and 3.922 and 0.8524 | ileum Mrp4 i, individual animals ([2]; HFD study, relative to control): 0.275 and 0.7792 and 1.874 and 1.502 and 1.969 and 1.209 | ileum Slc10a2 i, individual animals ([2]; HFD study, relative to control): 0.08727 and 0.1129 and 0.7704 and 0.8835 and 0.4948 | ileum Slc51a i, individual animals ([2]; HFD study, relative to control): 0.2127 and 0.5386 and 0.8471 and 0.8796 and 0.7946 and 0.7965 | ileum Slc51b i, individual animals ([2]; HFD study, relative to control): 0.7174 and 1.595 and 0.9945 and 0.7427 and 0.4728 and 0.5989 | ileal Npc1l1 and Abcg5/8 ([2]; Supplementary Fig. 14): did not observe any regulation | ileal Shp and Fgf15 mRNA levels ([2]; Supplementary Fig. 14): not affected | inhibition of CYP2B6 activity (Human recombinant CYP2B6): does not suppress | Inhibition assays, CYP2B6 activity (replicates) (Human recombinant CYP2B6; M 0): 129 and 112 and 119 | Inhibition assays, CYP2B6 activity (replicates) (Human recombinant CYP2B6; M 0.5): 112 | Inhibition assays, CYP2B6 activity (replicates) (Human recombinant CYP2B6; M 0.5, listed as MI 883): 104 and 118 | Inhibition assays, CYP2B6 activity (replicates) (Human recombinant CYP2B6; M 1): 114 (2×) and 110 | Inhibition assays, CYP2B6 activity (replicates) (Human recombinant CYP2B6; M -0.5): 102 and 120 and 140 | Inhibition assays, CYP2B6 activity (replicates) (Human recombinant CYP2B6; M -1): 98 | Inhibition assays, CYP2B6 activity (replicates) (Human recombinant CYP2B6; M -1, listed as MI 883): 104 and 111 | Inhibition assays, CYP2B6 activity (replicates) (Human recombinant CYP2B6; M -2): 100 | Inhibition assays, CYP2B6 activity (replicates) (Human recombinant CYP2B6; M -2.5): 100 | Inhibition assays, CYP2B6 activity (replicates) (Human recombinant CYP2B6; M -3): 100 | Inhibition assays, CYP2B6 activity (replicates) (Human recombinant CYP2B6; M -3.5): 100 | Inhibition assays, CYP2B6 activity (replicates) (Human recombinant CYP2B6; M -4): 100 | Inhibition assays, CYP2B6 activity (replicates) (Human recombinant CYP2B6; M -4.5): 100 | microsomal CLint ([3]; liver S9 fraction): 3 µL/min/mg | half-life ([3]; s9): 1.87 h | pER6-luc luciferase gene reporter assay (Fig1 m), replicates ([4]; Rif 1μM + MI-883 30μM): 0.18 and 0.17 and 0.185 | pER6-luc luciferase gene reporter assay (Fig1 m), replicates ([4]; SR12813 1μM + MI-883 30μM): 0.21 and 0.22 and 0.19 | pER6-luc luciferase gene reporter assay (Fig1 m), replicates ([4]; single agent 10μM): 0.17 and 0.18 | pER6-luc luciferase gene reporter assay (Fig1 m), replicates ([4]; single agent 30μM): 0.21 and 0.19
